Assay results taken from US20150267232A1, “IN VIVO AND IN VITRO CARBENE INSERTION AND NITRENE TRANSFER REACTIONS CATALYZED BY HEME ENZYMES” (California Institute of Technology, priority 2012, published 2015).

Experiments:
[1] = P450/hemin reactions with azide 8 under anaerobic conditions (C—H amination); type: biochemical
Text: Benzosultam 9 (a), arylsulfonamide 13 (c), alcohol 14 (b), alkene 15 and dimer 16 (d) are defined in FIG. 13. […] B1SYN (e.g., P450BM3 with 23 amino acid substitutions) catalyzed about 45 TTN for form the benzosultam.
Small-Scale Amination Reactions Under Anaerobic Conditions.
Reaction conditions were as described herein and analyzed by reverse-phase LC-MS (Agilent 1100 series LC-MSD), acetonitrile-water, using a C18 column (Peeke Scientific, Kromasil 100 5 μm, 50×4.6 mm ID). Acetonitrile gradient for 2-isopropylbenzenesulfonyl azide reactions: 10-22% (8 min), 22-60% (10 min), 60% (2 min), at 1.5 mL min^−1. Retention times: alcohol 10 (6.3 min), sulfonamide 2 (10.6 min), dimer 4 (12.3 min), azide 1 (17.6 min).

[2] = Intramolecular carbene C—H insertion, substrate 4.1a; type: biochemical
[3] = P450/hemin reactions with azide 5 under anaerobic conditions (C—H amination); type: biochemical
Text: Benzosultam 6, arylsulfonamide 7 (*), and dimer 12 (#) are defined in FIG. 10. […] For instance, B1SYN (e.g., P450BM3 with 23 amino acid substitutions) catalyzed over 30 TTN for form the benzosultam.
Small-Scale Amination Reactions Under Anaerobic Conditions. […]

[4] = Whole-cell C—H amination of azide 1; type: cell-based, E. coli BL21(DE3); details: lyophilized cells
[5] = P450BM3 compilation plate screen (GC, cyclopropane peaks); type: biochemical; details: P450BM3 variants
[6] = cat. loading 1 mol %, reductant None

## hemin
[1]; 1 mol %, 2 mM NADPH
  TTN arylsulfonamide 13: 1
  TTN benzosultam 9: 0
  arylsulfonamide 13 (% yield): (1) %
[1]; 1 mol %, 2 mM Na2S2O4
  TTN arylsulfonamide 13: 1
  TTN benzosultam 9: 4
  arylsulfonamide 13 (% yield): (1) %
  benzosultam 9 (% yield): (4) %
[1]; 1 mol %, 10 mM Na2S2O4
  TTN arylsulfonamide 13: 23
  TTN benzosultam 9: 61
  arylsulfonamide 13 (% yield): (23) %
  benzosultam 9 (% yield): (61) %
[1]; 1 mol %, reductant None
  TTN arylsulfonamide 13: 0
  TTN benzosultam 9: 0
[1]; 10 mol %, 2 mM Na2S2O4
  TTN arylsulfonamide 13: 0
  TTN benzosultam 9: 0
[1]; 10 mol %, 10 mM Na2S2O4
  TTN arylsulfonamide 13: 3
  TTN benzosultam 9: 4
  arylsulfonamide 13 (% yield): (30) %
  benzosultam 9 (% yield): (40) %
[2]; 10 mM 4.1a, 5% hemin, 10 mM Na2S2O4, product 4.2a
  Yield %: 0%
[2]; substrates 4.1a and 4.1b, 10 μM variant or hemin at 5% catalyst loading, 16 h
  lactone formation via C—H bond insertion: not catalyzed
[3]; 1 mol %, 2 mM NADPH
  TTN arylsulfonamide 7: 1
  TTN benzosultam 6: 0
  arylsulfonamide 7 (% yield): (1) %
[3]; 1 mol %, 2 mM Na2S2O4
  TTN arylsulfonamide 7: 5
  TTN benzosultam 6: 0
  arylsulfonamide 7 (% yield): (5) %
[3]; 1 mol %, 10 mM Na2S2O4
  TTN arylsulfonamide 7: 58
  TTN benzosultam 6: 0
  arylsulfonamide 7 (% yield): (58) %
[3]; 10 mol %, 2 mM Na2S2O4
  TTN arylsulfonamide 7: 1
  TTN benzosultam 6: 0
  arylsulfonamide 7 (% yield): (10) %
[3]; 10 mol %, 10 mM Na2S2O4
  TTN arylsulfonamide 7: 6
  TTN benzosultam 6: 0
  arylsulfonamide 7 (% yield): (60) %
[3]; [6]
  TTN arylsulfonamide 7: 0
  TTN benzosultam 6: 0

B1: ABC-CIS: BM3-CIS + C400S (protein, listed as Bacillus megaterium)
chain: TIKEMPQPKTFGELKNLPLLNTDKPVQALMKIADELGEIFKFEAPGRVTRYLSSQRLIKEACDESRFDKNLSQALKFARDFAGDGLVTSWTHEKNWKKAHNILLPSFSQQAMKGYHAMMVDIAVQLVQKWERLNADEHIEVSEDMTRLTLDTIGLCGFNYRFNSFYRDQPHPFIISMVRALDEVMNKLQRANPDDPAYDENKRQFQEDIKVMNDLVDKIIADRKARGEQSDDLLTQMLNGKDPETGEPLDDGNIRYQIITFLIAGHEATSGLLSFALYFLVKNPHVLQKVAEEAARVLVDPVPSYKQVKQLKYVGMVLNEALRLWPTAPAFSLYAKEDTVLGGEYPLEKGDEVMVLIPQLHRDKTVWGDDVEEFRPERFENPSAIPQHAFKPFGNGQRASIGQQFALHEATLVLGMMLKHFDFEDHTNYELDIKETLTLKPKGFVVKAKSKKIPLGGIPSPSTEQSAKKVRKKAENAHNTPLLVLYGSNMGTAEGTARDLADIAMSKGFAPQVATLDSHAGNLPREGAVLIVTASYNGHPPDNAKQFVDWLDQASADEVKGVRYSVFGCGDKNWATTYQKVPAFIDETLAAKGAENIADRGEADASDDFEGTYEEWREHMWSDVAAYFNLDIENSEDNKSTLSLQFVDSAADMPLAKMHGAFSTNVVASKELQQPGSARSTRHLEIELPKEASYQEGDHLGVIPRNYEGIVNRVTARFGLDASQQIRLEAEEEKLAHLPLAKTVSVEELLQYVELQDPVTRTQLRAMAAKTVCPPHKVELEALLEKQAYKEQVLAKRLTMLELLEKYPACEMKFSEFIALLPSIRPRYYSISSSPRVDEKQASITVSVVSGEAWSGYGEYKGIASNYLAELQEGDTITCFISTPQSEFTLPKDPETPLIMVGPGTGVAPFRGFVQARKQLKEQGQSLGEAHLYFGCRSPHEDYLYQEELENAQSEGIITLHTAFSRMPNQPKTYVQHVMEQDGKKLIELLDQGAHFYICGDGSQMAPAVEATLMKSYADVHQVSEADARLWLQQLEEKGRYAKDVWAG
modifications: cytochrome P450NADPH-P-450 reductase precursor, cytochrome P450 (BM3), CYP102A1
notes: BM3-CIS + C400S
[4]
  % ee: 61%
  TTN: 750

B2: P450BM3: wild-type cytochrome P450BM3 from Bacillus megaterium (SEQ ID NO: 1) (protein, listed as Bacillus megaterium)
chain: TIKEMPQPKTFGELKNLPLLNTDKPVQALMKIADELGEIFKFEAPGRVTRYLSSQRLIKEACDESRFDKNLSQALKFVRDFAGDGLFTSWTHEKNWKKAHNILLPSFSQQAMKGYHAMMVDIAVQLVQKWERLNADEHIEVPEDMTRLTLDTIGLCGFNYRFNSFYRDQPHPFITSMVRALDEAMNKLQRANPDDPAYDENKRQFQEDIKVMNDLVDKIIADRKASGEQSDDLLTHMLNGKDPETGEPLDDENIRYQIITFLIAGHETTSGLLSFALYFLVKNPHVLQKAAEEAARVLVDPVPSYKQVKQLKYVGMVLNEALRLWPTAPAFSLYAKEDTVLGGEYPLEKGDELMVLIPQLHRDKTIWGDDVEEFRPERFENPSAIPQHAFKPFGNGQRACIGQQFALHEATLVLGMMLKHFDFEDHTNYELDIKETLTLKPEGFVVKAKSKKIPLGGIPSPSTEQSAKKVRKKAENAHNTPLLVLYGSNMGTAEGTARDLADIAMSKGFAPQVATLDSHAGNLPREGAVLIVTASYNGHPPDNAKQFVDWLDQASADEVKGVRYSVFGCGDKNWATTYQKVPAFIDETLAAKGAENIADRGEADASDDFEGTYEEWREHMWSDVAAYFNLDIENSEDNKSTLSLQFVDSAADMPLAKMHGAFSTNVVASKELQQPGSARSTRHLEIELPKEASYQEGDHLGVIPRNYEGIVNRVTARFGLDASQQIRLEAEEEKLAHLPLAKTVSVEELLQYVELQDPVTRTQLRAMAAKTVCPPHKVELEALLEKQAYKEQVLAKRLTMLELLEKYPACEMKFSEFIALLPSIRPRYYSISSSPRVDEKQASITVSVVSGEAWSGYGEYKGIASNYLAELQEGDTITCFISTPQSEFTLPKDPETPLIMVGPGTGVAPFRGFVQARKQLKEQGQSLGEAHLYFGCRSPHEDYLYQEELENAQSEGIITLHTAFSRMPNQPKTYVQHVMEQDGKKLIELLDQGAHFYICGDGSQMAPAVEATLMKSYADVHQVSEADARLWLQQLEEKGRYAKDVWAG
modifications: cytochrome P450NADPH-P-450 reductase precursor, cytochrome P450 (BM3), CYP102A1
[5]; (R,S)-(S,R), chiral β-CDX GC
  ee (cis): 7
[5]; diastereomeric excess = ([cis] − [trans])/([cis] + [trans])
  de: −81
[5]; sum of the area of the cyclopropane peaks over the area of the internal standard
  Absolute activity: 0.00224
